Assay results: the supplement of paper PMC11451515

Tested on: P12-Ichikawa
Assay: cell viability relative to DMSO control; higher = less cytotoxic
Details: 48 h
Procedure, shortened: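 Viability was expressed as a per-plate percentage of DMSO wells, with cell-free wells as background. Leukemia cells (NOMO1 or SEM at 500 cells/well, P12-Ichikawa at 1000 cells/well) were adapted for at least four passages in each medium and seeded in 1536-well plates (5 μl). Library compounds in DMSO were pin-dosed over an 11-point threefold series from 47 μM to 0.79 nM, and CellTiter-Glo One luminescence was read after 48 h at 37°C.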

CC(C)(C)[C@]1(O)C[C@@H]2OC(=O)C[C@@]23C(=O)O[C@@H]2OC(=O)[C@H](O)C213 (stereo partly drawn)
cell viability [%]
Details | HPLM + 10% dialyzed FBS | RPMI 5 mM glucose + 10% FBS | RPMI 5 mM glucose + 10% dialyzed FBS
0.000781 µM | 121 | 128 | 120
0.00234 µM | 127 | 121 | 129
0.00702 µM | 121 | 113 | 124
0.0211 µM | 126 | 136 | 130
0.0632 µM | 118 | 118 | 119
0.19 µM | 112 | 122 | 116
0.569 µM | 118 | 118 | 119
1.71 µM | 108 | 105 | 105
5.12 µM | 109 | 116 | 118
15.4 µM | 114 | 108 | 116
46.1 µM | 106 | 113 | 112
